Results as given in PubChem BioAssay AID222 (DTP/NCI, 2004).
Several values for one entry are separate records, joined by “and”; a condition that tells them apart may be missing. Equal values may be shown once. Toxic doses and inconclusive results are not listed. How the source made its calls: active means survival T/C of 150% or more; inactive means T/C below 125% in these data.

Test system: C57BL/6 mice, intracerebral ependymoblastoma, median survival T/C
Assay: NCI In Vivo Anticancer Drug Screen. Data for tumor model Ependymoblastoma (intracerebral) in C57BL/6 mice
Settings: endpoint: median survival time, higher = longer survival
Method: The antitumor activity of compounds was measured in mice bearing transplantable tumors. Survival or tumor size were measured and the results are expressed as the measurement made in the treated group (T) divided by the measurement made in the vehicle treated control group (C). The tumor model used in this assay is Ependymoblastoma (intracerebral) in C57BL/6 mice

[1] = dose: 16.0 mg/kg/injection, schedule: Q01DX005 (ip), vehicle: Klucel (hydroxypropylcellulose) (HPC)
[2] = dose: 64.0 mg/kg/injection, schedule: Q01DX005 (ip), vehicle: Klucel (hydroxypropylcellulose) (HPC)

Measured: T/C

O=c1cnn(C2OC(CO)C(O)C2O)c(=O)[nH]1 (stereo unspecified)
inactive: dose: 250.0 mg/kg/injection, schedule: Q01DX005 (ip), vehicle: saline 102 % of control | dose: 500.0 mg/kg/injection, schedule: Q01DX005 (ip), vehicle: saline 109 % of control and 111 % of control | dose: 1000.0 mg/kg/injection, schedule: Q01DX005 (ip), vehicle: saline 105 % of control and 109 % of control | dose: 2000.0 mg/kg/injection, schedule: Q01DX005 (ip), vehicle: saline 115 % of control

CC(CN1CC(=O)NC(=O)C1)N1CC(=O)NC(=O)C1 (stereo unspecified)
inactive: dose: 8.0 mg/kg/injection, schedule: Q01DX001 (ip), vehicle: Klucel (hydroxypropylcellulose) (HPC) 116 % of control | dose: 8.0 mg/kg/injection, schedule: Q01DX005 (ip), vehicle: Klucel (hydroxypropylcellulose) (HPC) 91 % of control and 112 % of control | dose: 16.0 mg/kg/injection, schedule: Q01DX001 (ip), vehicle: Klucel (hydroxypropylcellulose) (HPC) 87 % of control | [1] 110 % of control | dose: 32.0 mg/kg/injection, schedule: Q01DX001 (ip), vehicle: Klucel (hydroxypropylcellulose) (HPC) 89 % of control and 122 % of control | dose: 32.0 mg/kg/injection, schedule: Q01DX005 (ip), vehicle: Klucel (hydroxypropylcellulose) (HPC) 105 % of control | dose: 64.0 mg/kg/injection, schedule: Q01DX001 (ip), vehicle: Klucel (hydroxypropylcellulose) (HPC) 98 % of control and 118 % of control | [2] 90 % of control | dose: 128.0 mg/kg/injection, schedule: Q01DX001 (ip), vehicle: Klucel (hydroxypropylcellulose) (HPC) 95 % of control

C[C@@H](CN1CC(=O)NC(=O)C1)N1CC(=O)NC(=O)C1
inactive: dose: 1.0 mg/kg/injection, schedule: Q01DX005 (ip), vehicle: water 110 % of control | dose: 4.0 mg/kg/injection, schedule: Q01DX005 (ip), vehicle: Klucel (hydroxypropylcellulose) (HPC) 103 % of control (2×) and 118 % of control | dose: 4.0 mg/kg/injection, schedule: Q01DX005 (ip), vehicle: saline with Tween-80 103 % of control | dose: 4.0 mg/kg/injection, schedule: Q01DX005 (ip), vehicle: water 106 % of control | dose: 8.0 mg/kg/injection, schedule: Q01DX005 (ip), vehicle: saline with Tween-80 104 % of control | [1] 106 % of control and 112 % of control and 120 % of control | dose: 16.0 mg/kg/injection, schedule: Q01DX005 (ip), vehicle: saline with Tween-80 108 % of control | dose: 16.0 mg/kg/injection, schedule: Q01DX005 (ip), vehicle: water 111 % of control | dose: 32.0 mg/kg/injection, schedule: Q01DX005 (ip), vehicle: saline with Tween-80 112 % of control | dose: 32.0 mg/kg/injection, schedule: Q01DX005 (ip), vehicle: saline 108 % of control and 111 % of control | [2] 115 % of control and 121 % of control | dose: 64.0 mg/kg/injection, schedule: Q01DX005 (ip), vehicle: saline with Tween-80 113 % of control | dose: 64.0 mg/kg/injection, schedule: Q01DX005 (ip), vehicle: saline 119 % of control and 121 % of control | dose: 64.0 mg/kg/injection, schedule: Q01DX005 (ip), vehicle: water 116 % of control | dose: 128.0 mg/kg/injection, schedule: Q01DX005 (ip), vehicle: saline 120 % of control

CS(C)=O
inactive: dose: 1.5 grams/kg/injection, schedule: Q01DX005 (ip), vehicle: saline 103 % of control | dose: 6.0 grams/kg/injection, schedule: Q01DX005 (ip), vehicle: saline 103 % of control

CC(=O)Nc1ccc(/C=N/NC(N)=S)cc1
inactive: dose: 45.0 mg/kg/injection, schedule: Q01DX005 (ip), vehicle: saline with Tween-80 98 % of control | dose: 90.0 mg/kg/injection, schedule: Q01DX005 (ip), vehicle: saline with Tween-80 93 % of control and 102 % of control | dose: 180.0 mg/kg/injection, schedule: Q01DX005 (ip), vehicle: saline with Tween-80 92 % of control and 104 % of control | dose: 360.0 mg/kg/injection, schedule: Q01DX005 (ip), vehicle: saline with Tween-80 96 % of control and 98 % of control | dose: 720.0 mg/kg/injection, schedule: Q01DX005 (ip), vehicle: saline with Tween-80 105 % of control and 110 % of control

CC[n+]1c(-c2ccccc2)c2cc(N)ccc2c2ccc(N)cc21
inactive: dose: 12.0 mg/kg/injection, schedule: Q01DX005 (ip), vehicle: saline 99 % of control
